What was measured:
[1] = tested on: diabetic patients; test: Clinical trial of phytate (phytin) in diabetic patients: plasma HbA1c and AGEs, urinary phytate; format: in vivo, human
[2] = tested on: formation of AGEs; test: In vitro formation of AGEs (ribose, arginine, lysine, Fe3+; fluorescence at 7 days); format: biochemical; conditions: 37° C., vs control without inhibitors
Procedure: In an in vitro study, the inhibiting effect of phytate alone or in combination with pyridoxamine on the formation of AGEs was compared (see FIG. 2). […] In these studies, the formation of AGEs was induced by incubating a reaction mixture containing ribose (200 mM) (taken as the model reducing sugar), 1 mM arginine, 2 mM lysine (as glycation targets), and 2 μM Fe^3 (as a glycation catalyzer) with various concentrations of phytate and pyridoxamine alone or in combination at 37° C. for 7 days (in a 0.2 M phosphate buffer). The quantity of AGEs present at 7 days was determined by fluorescence.

| increase in the urinary excretion of phytate ([1]; 1,140 mg phytate (as phytin) daily for 3 months, p=0.026) | Compound | decrease in plasma AGEs ([1]; 1,140 mg phytate (as phytin) daily for 3 months, 33 diabetic patients, p<0.001) | decrease in plasma glycated hemoglobin (HbA1c) ([1]; 1,140 mg phytate (as phytin) daily for 3 months, 33 diabetic patients, p=0.017) | plasma levels of HbA1c and AGEs after withdrawal ([1]; three months without phytate, after three months of consuming it) | inhibition of the formation of AGEs ([2]; 1 μM inhibitor alone) | inhibition of the formation of AGEs ([2]; 2 μM inhibitor alone) | inhibition of the formation of AGEs ([2]; 2.5 μM inhibitor alone) |
| --- | --- | --- | --- | --- | --- | --- | --- |
| 33.6% | O=P(O)(O)O[C@H]1[C@H](OP(=O)(O)O)[C@@H](OP(=O)(O)O)[C@H](OP(=O)(O)O)[C@@H](OP(=O)(O)O)[C@H]1OP(=O)(O)O [phytate, myo-inositol-hexaphosphate] | ~25.1% | ~3.9% | returning to levels similar to the baselines | 12.7% | 19.9% | – |
| – | Cc1ncc(CO)c(CN)c1O [pyridoxamine] | – | – | – | 17.5% | – | 28.2% |
